Reference: article PMC10100342, “Thiamyxins: Structure and Biosynthesis of Myxobacterial RNA‐Virus Inhibitors” (Angewandte Chemie (International Ed. in English), 2022)

Tested on: DENV-R2A
Details: ratio of IC50 values

C=C1NC(=O)C2(C)CSC(=N2)c2csc(n2)C2(C)CSC(=N2)C(C(C)CC)NC(=O)C(C)NC(=O)C(=CC(C)C)COC(=O)c2csc(n2)C(C(C)C)N(C)C(=O)C(COC)NC1=O (stereo not shown) [Thiamyxin B]
IC50 against DENV-R2A lower compared to HCov-229E-luc: fourfold
